From PubChem BioAssay AID192 (DTP/NCI, 2004)
Values joined by “and” are separate entries in the source; they are usually repeats but may differ in a detail not shown here. Identical values can stand only once. Inconclusive results and toxic doses are left out.

Test system: BDF1 mice, B16 melanoma ip, median survival T/C
Experiment: NCI In Vivo Anticancer Drug Screen. Data for tumor model B16 Melanoma (intraperitoneal) in B6D2F1 (BDF1) mice
Settings: endpoint: median survival time, higher = longer survival
Protocol: The antitumor activity of compounds was measured in mice bearing transplantable tumors. Survival or tumor size were measured and the results are expressed as the measurement made in the treated group (T) divided by the measurement made in the vehicle treated control group (C). The tumor model used in this assay is B16 Melanoma (intraperitoneal) in B6D2F1 (BDF1) mice

[1] = dose: 0.39 mg/kg/injection, schedule: Q01DX009 (ip), vehicle: Klucel (hydroxypropylcellulose) (HPC)
[2] = dose: 0.78 mg/kg/injection, schedule: Q01DX009 (ip), vehicle: Klucel (hydroxypropylcellulose) (HPC)
[3] = dose: 1.56 mg/kg/injection, schedule: Q01DX009 (ip), vehicle: Klucel (hydroxypropylcellulose) (HPC)
[4] = dose: 3.12 mg/kg/injection, schedule: Q01DX009 (ip), vehicle: Klucel (hydroxypropylcellulose) (HPC)
[5] = dose: 100.0 mg/kg/injection, schedule: Q04DX003 (ip), vehicle: Klucel (hydroxypropylcellulose) (HPC)
[6] = dose: 6.25 mg/kg/injection, schedule: Q01DX009 (ip), vehicle: Klucel (hydroxypropylcellulose) (HPC)
[7] = dose: 200.0 mg/kg/injection, schedule: Q01DX009 (ip), vehicle: Klucel (hydroxypropylcellulose) (HPC)
[8] = dose: 50.0 mg/kg/injection, schedule: Q01DX009 (ip), vehicle: Klucel (hydroxypropylcellulose) (HPC)
[9] = dose: 100.0 mg/kg/injection, schedule: Q01DX009 (ip), vehicle: Klucel (hydroxypropylcellulose) (HPC)
[10] = dose: 12.5 mg/kg/injection, schedule: Q01DX009 (ip), vehicle: Klucel (hydroxypropylcellulose) (HPC)
[11] = dose: 50.0 mg/kg/injection, schedule: Q04DX003 (ip), vehicle: saline
[12] = dose: 12.5 mg/kg/injection, schedule: Q01DX009 (ip), vehicle: saline with Tween-80
[13] = dose: 25.0 mg/kg/injection, schedule: Q01DX009 (ip), vehicle: saline with Tween-80
[14] = dose: 50.0 mg/kg/injection, schedule: Q01DX009 (ip), vehicle: saline with Tween-80
[15] = dose: 400.0 mg/kg/injection, schedule: Q01DX009 (ip), vehicle: Klucel (hydroxypropylcellulose) (HPC)

With `O=S(=O)(O)O.[W]` the T/C (dose: 0.75 mg/kg/injection, schedule: Q01DX009 (ip), vehicle: saline) was 87 % of control and 100 % of control and the T/C (dose: 1.5 mg/kg/injection, schedule: Q01DX009 (ip), vehicle: saline) was 91 % of control and 101 % of control.
For `COC(=O)C1C2CC3c4[nH]c5ccc(OC)cc5c4CCN3CC2CC(OC(=O)c2cc(OC)c(OC)c(OC)c2)C1OC` (stereo not given), the T/C (dose: 0.17 mg/kg/injection, schedule: Q01DX009 (ip), vehicle: Klucel (hydroxypropylcellulose) (HPC)) was 88 % of control, the T/C (dose: 0.35 mg/kg/injection, schedule: Q01DX009 (ip), vehicle: Klucel (hydroxypropylcellulose) (HPC)) was 110 % of control and the T/C (dose: 1.42 mg/kg/injection, schedule: Q01DX009 (ip), vehicle: Klucel (hydroxypropylcellulose) (HPC)) was 91 % of control. The T/C (dose: 2.85 mg/kg/injection, schedule: Q01DX009 (ip), vehicle: Klucel (hydroxypropylcellulose) (HPC)) was 89 % of control, the T/C (dose: 22.81 mg/kg/injection, schedule: Q01DX009 (ip), vehicle: Klucel (hydroxypropylcellulose) (HPC)) was 100 % of control and the T/C (dose: 45.62 mg/kg/injection, schedule: Q01DX009 (ip), vehicle: Klucel (hydroxypropylcellulose) (HPC)) was 98 % of control.
In the case of `O=C(CCCN1CCN(c2ccccn2)CC1)c1ccc(F)cc1`, the T/C (dose: 0.19 mg/kg/injection, schedule: Q01DX009 (ip), vehicle: Klucel (hydroxypropylcellulose) (HPC)) is reported as 93 % of control, the T/C [1] is reported as 89 % of control and the T/C [2] is reported as 110 % of control. For the same compound, the T/C [3] was 92 % of control and the T/C [4] was 88 % of control.
With `O=P(O)(O)OCCCl` the T/C [5] was 100 % of control, the T/C (dose: 200.0 mg/kg/injection, schedule: Q04DX003 (ip), vehicle: Klucel (hydroxypropylcellulose) (HPC)) was 94 % of control and the T/C (dose: 400.0 mg/kg/injection, schedule: Q04DX003 (ip), vehicle: Klucel (hydroxypropylcellulose) (HPC)) was 103 % of control.
`CC(=O)OC1OC(=O)C(C)(C(C)=O)C1C` (stereo not given) was tested, and the T/C (dose: 2.5 mg/kg/injection, schedule: Q01DX009 (ip), vehicle: distilled water + alcohol) was 104 % of control, the T/C (dose: 5.0 mg/kg/injection, schedule: Q01DX009 (ip), vehicle: distilled water + alcohol) was 102 % of control and the T/C (dose: 10.0 mg/kg/injection, schedule: Q01DX009 (ip), vehicle: distilled water + alcohol) was 104 % of control.
For `CC1OC2COC(C)OC2C(C(O)COC(c2ccccc2)(c2ccccc2)c2ccccc2)O1` (stereo not given), the T/C [3] was 89 % of control, the T/C [4] was 89 % of control and the T/C [6] was 88 % of control. The T/C (dose: 50.0 mg/kg/injection, schedule: Q04DX003 (ip), vehicle: Klucel (hydroxypropylcellulose) (HPC)) was 92 % of control, the T/C [5] was 97 % of control and the T/C [7] was 109 % of control.
In the case of `COc1cccc2c1C(=O)c1c(O)c3c(c(O)c1C2=O)C[C@@](O)(C(C)=O)C[C@@H]3OC1CC(N2CCC(OC)CC2)C(O)C(C)O1` (stereo not given in full), the T/C (dose: 1.56 mg/kg/injection, schedule: Q01DX001 (ip), vehicle: water) is reported as 123 % of control and the T/C (dose: 6.25 mg/kg/injection, schedule: Q01DX001 (ip), vehicle: water) is reported as 162 % of control.
With `OCc1cc(Cl)ccc1O` the T/C [8] was 103 % of control, the T/C [9] was 96 % of control and the T/C [7] was 86 % of control.
For `CCN(CC)CCCC(C)Nc1cc(/C=C/c2ccc(Cl)cc2)nc2cc(N(C)C)ccc12` (stereo not given), the T/C [10] was 97 % of control.
`CCC1CC2CC(c3cc4c(cc3OC)N(C)C3C(O)(C(=O)OC)C(OC(C)=O)C5(CC)C=CCN6CCC43C65)c3[nH]c4ccccc4c3CCN(C1)C2` (stereo not given) was tested, and the T/C (dose: 0.25 mg/kg/injection, schedule: Q01DX009 (ip), vehicle: Klucel (hydroxypropylcellulose) (HPC)) was 108 % of control, the T/C (dose: 0.5 mg/kg/injection, schedule: Q01DX009 (ip), vehicle: Klucel (hydroxypropylcellulose) (HPC)) was 94 % of control and the T/C (dose: 1.0 mg/kg/injection, schedule: Q01DX009 (ip), vehicle: Klucel (hydroxypropylcellulose) (HPC)) was 104 % of control. For the same compound, the T/C (dose: 2.0 mg/kg/injection, schedule: Q01DX009 (ip), vehicle: Klucel (hydroxypropylcellulose) (HPC)) was 111 % of control, the T/C (dose: 4.0 mg/kg/injection, schedule: Q01DX009 (ip), vehicle: Klucel (hydroxypropylcellulose) (HPC)) was 108 % of control and the T/C (dose: 8.0 mg/kg/injection, schedule: Q01DX009 (ip), vehicle: Klucel (hydroxypropylcellulose) (HPC)) was 104 % of control.
For `CC1(C)N=C(N)N=C(N)N1c1ccc(OCc2ccc(C(=O)Nc3cccc(S(=O)(=O)F)c3)cc2)c(Cl)c1`, the T/C (dose: 12.5 mg/kg/injection, schedule: Q04DX003 (ip), vehicle: saline with Tween-80) was 119 % of control and the T/C [11] was 166 % of control.
For `O=C(Nc1nncs1)c1ccncc1`, the T/C [12] was 100 % of control, the T/C [13] was 101 % of control and the T/C [14] was 109 % of control. For the same compound, the T/C (dose: 100.0 mg/kg/injection, schedule: Q01DX009 (ip), vehicle: saline with Tween-80) was 113 % of control and the T/C (dose: 200.0 mg/kg/injection, schedule: Q01DX009 (ip), vehicle: saline with Tween-80) was 109 % of control.
For `CC1(C)N=C(N)N=C(N)N1c1ccc2ccccc2c1`, the T/C [12] was 90 % of control, the T/C (dose: 22.0 mg/kg/injection, schedule: Q01DX009 (ip), vehicle: Klucel (hydroxypropylcellulose) (HPC)) was 87 % of control and the T/C [13] was 94 % of control. The T/C (dose: 33.0 mg/kg/injection, schedule: Q01DX009 (ip), vehicle: Klucel (hydroxypropylcellulose) (HPC)) was 91 % of control, the T/C [8] was 119 % of control and the T/C [14] was 98 % of control.
In the case of `COC(=O)c1cc(Cl)ccc1OCC(=O)Nc1ccc([N+](=O)[O-])cc1`, the T/C [8] is reported as 100 % of control and the T/C [9] is reported as 100 % of control.
For `CCN1C=C/C(=C\C=C/c2cc[n+](CC)c3ccccc23)c2ccccc21`, the T/C (dose: 6.0 micrograms/kg/injection, schedule: Q01DX009 (ip), vehicle: saline) was 106 % of control, the T/C (dose: 12.0 micrograms/kg/injection, schedule: Q01DX009 (ip), vehicle: saline) was 110 % of control and the T/C (dose: 25.0 micrograms/kg/injection, schedule: Q01DX009 (ip), vehicle: saline) was 115 % of control. For the same compound, the T/C (dose: 50.0 micrograms/kg/injection, schedule: Q01DX009 (ip), vehicle: saline) was 106 % of control.
For `O=C(C=P(c1ccccc1)(c1ccccc1)c1ccccc1)c1ccccc1`, the T/C (dose: 100.0 mg/kg/injection, schedule: Q04DX003 (ip), vehicle: saline with Tween-80) was 102 % of control, the T/C (dose: 200.0 mg/kg/injection, schedule: Q04DX003 (ip), vehicle: saline with Tween-80) was 102 % of control and the T/C (dose: 400.0 mg/kg/injection, schedule: Q04DX003 (ip), vehicle: saline with Tween-80) was 102 % of control.
`COC(=O)c1[nH]c(=O)[nH]c(=O)c1F` was tested, and the T/C (dose: 2.0 mg/kg/injection, schedule: Q01DX009 (ip), vehicle: saline with Tween-80) was 95 % of control, the T/C (dose: 4.0 mg/kg/injection, schedule: Q01DX009 (ip), vehicle: saline with Tween-80) was 97 % of control and the T/C (dose: 8.0 mg/kg/injection, schedule: Q01DX009 (ip), vehicle: saline with Tween-80) was 107 % of control.
In the case of `CC(C)(O)c1cccc2c(C(C)(C)O)cccc12`, the T/C [9] is reported as 92 % of control, the T/C [7] is reported as 114 % of control and the T/C [15] is reported as 91 % of control.
`CCN(CC)C(=O)C1CN2CCc3cc(OC)c(OC)cc3C2CC1OC(C)=O` (stereo not given) was tested, and the T/C [1] was 95 % of control, the T/C [2] was 86 % of control and the T/C [3] was 96 % of control. The T/C [4] was 104 % of control, the T/C [6] was 100 % of control and the T/C [8] was 89 % of control. The T/C [9] was 100 % of control.
For `CCCCCCC(=O)NC1=C(N2CC2)C(=O)C(NC(=O)CCCCCC)=C(N2CC2)C1=O`, the T/C [6] was 110 % of control, the T/C [10] was 115 % of control and 120 % of control and the T/C (dose: 25.0 mg/kg/injection, schedule: Q01DX009 (ip), vehicle: Klucel (hydroxypropylcellulose) (HPC)) was 100 % of control.
In the case of `Cc1c(Cl)cccc1NC(=O)NCCC(C)C`, the T/C [12] is reported as 103 % of control, the T/C [13] is reported as 100 % of control and the T/C [14] is reported as 96 % of control.
For `CC1(CCl)OCCO1`, the T/C [8] was 96 % of control, the T/C [9] was 100 % of control and the T/C [7] was 100 % of control.
`O=C(Nc1ccccc1)Oc1ccc(Cl)cc1` was tested, and the T/C [9] was 93 % of control, the T/C [7] was 94 % of control and the T/C [15] was 99 % of control.
In the case of `CC(CC(O)c1ccccc1)c1ccccc1` (stereo not given), the T/C [9] is reported as 102 % of control, the T/C [7] is reported as 100 % of control and the T/C [15] is reported as 92 % of control.
For `C[NH-].C[NH-].O=C(O)CC(=O)O.[Pt+2]`, the T/C [11] was 108 % of control, the T/C (dose: 100.0 mg/kg/injection, schedule: Q04DX003 (ip), vehicle: saline) was 162 % of control and the T/C (dose: 200.0 mg/kg/injection, schedule: Q04DX003 (ip), vehicle: saline) was 165 % of control.
